Reference: patent US10144929B2, “Polypeptide inhibitors of Smad3 polypeptide activities” (Mayo Foundation for Medical Education and Research, priority 2016, dated 2018)
Entries after “also recorded” stand apart in the source; their conditions may differ.

System: bleomycin (BLM)-induced lung fibrosis
Test: Treatment model of bleomycin (BLM)-induced lung fibrosis
Assay type: in vivo, mice
Conditions: for interstitial fibronectin / lung histology: daily intraperitoneal 0.5 mg/kg from day 14, day 28; for BLM induction of profibrotic genes (collagen 1, connective tissue growth factor, fibronectin), qPCR of lung tissue / total collagen production induced by bleomycin (hydroxyproline content): daily intraperitoneal from day 14, day 28; for peripheral blood oxygen saturation (SpO2) / gas exchange: 2-week treatment interval from day 14
Method: FIGS. 5A-D. Bleomycin (BLM)-induced lung remodeling is attenuated by TAT-SH3-2. (A) Hematoxylin and Eosin (H&E), Masson's Trichrome (MT), or fibronectin (anti-fibronectin and Hematoxylin) staining of representative paraffin-embedded lung sections from Control (saline treated) or mice challenged with BLM for 28 days and treated daily with 0.5 mg/kg TAT-SH3-2 or TAT-SH3-2M beginning 14 days following initial BLM insult (×8). (B) qPCR of the indicated genes (Col1, collagen 1; CTGF, connective tissue growth factor; FN, fibronectin) in murine lung tissue harvested on day 28 from mice challenged with BLM (+) or saline (−) and treated daily with vehicle (−; methocel/saline) or the indicated amount (μg) of TAT-SH3-2 or TAT-SH3-2M as in (A). Data reflect mean+/−sd of n=4. (C) Mice were treated with saline or BLM as in (A) and on day 14 administered daily vehicle (−) or the indicated concentration of TAT peptide. Animals were sacrificed on day 28, and hydroxyproline content was determined as described herein. Data reflect mean+/−sd of n=3. *P<0.005, **P<0.002. (D) Mice were treated as in (C), and qPCR of the indicated genes (Col Iα1 (collagen Iα1); CTGF (connective tissue growth factor); and FN (fibronectin)) were assessed in lung tissue harvested on day 28. Data reflect mean+/−sd of n=5. *P<0.005, **P<0.001.
Time-dependent fluctuation of oxygen saturation (SpO2) levels (determined on room air) in mice challenged with BLM (or saline) for 28 days and treated 1×/day with vehicle (methocel/saline), 0.5 mg/kg of TAT-SH3-2 or TAT-SH3-2M beginning 14 days after initial BLM insult. Error bars reflect SEM from n=4. (B) Time-dependent fluctuation of oxygen saturation (SpO2) levels (determined on room air) in mice challenged with BLM (or saline) for 28 days and treated 1×/day with vehicle (methocel/saline) or the indicated concentration of TAT-SH3-2 or TAT-SH3-2M beginning 14 days after initial BLM insult. Error bars reflect mean+/−sd from n=5. *P<0.05, **P<0.01.
Female 18-20 g C57 black mice (Charles River Laboratories) were administered bleomycin (BLM; 0.075 U diluted in 50 μL 0.9% normal saline) or 50 μL 0.9% normal saline alone by tracheal instillation using an intratracheal aerosolized (Penn-century, Wyndmoor, Pa.) as described elsewhere (Andrianifahanana et al., FASEB J., 27(11):4444-54 (2013)). At this time, animals were shaved around the collar region to allow monitoring of dissolved oxygen levels (every 3rd day) on room air using a MouseOX collar clip monitoring system (Starr Life Science Corp. Oakmont, Pa.). TAT-SNX9(SH3) fusion polypeptides were solubilized with DMSO and prepared by thoroughly blending with Methocel (Sigma, Louis, Mo.) at a ratio of 1:7. Mice were treated daily by intraperitoneal injection (100 μL) of a TAT-SNX9(SH3) fusion polypeptide or an equal volume of methocel/saline beginning on day 14. On day 28, mice were euthanized, lungs were dissected, and samples were prepared for immunohistochemistry and other analyses as described elsewhere (Andrianifahanana et al., FASEB J., 27(11):4444-54 (2013); Daniels et al., J. Clin. Invest., 114:1308-16 (2004); and Wang et al., FASEB J., 19:1-11 (2005)).
The Hydroxyproline Assay Kit from Sigma (St. Louis, Mo.) was used to assess total lung collagen levels. Briefly, following sacrifice lung tissue was washed in PBS, and 30 mg homogenized in 300 μL water. One hundred μL samples were hydrolyzed in 12 M HCl, and duplicate 50 μL samples were analyzed according to the manufacturer's recommendations.

Substance	interstitial fibronectin	lung histology	BLM induction of profibrotic genes (collagen 1, connective tissue growth factor, fibronectin), qPCR of lung tissue	total collagen production induced by bleomycin (hydroxyproline content)	peripheral blood oxygen saturation (SpO2) / gas exchange (room air)	decrease in SpO2 during the treatment regime (room air, FIG. 6B) [%]	BLM-induced lung remodeling (FIG. 5 title)	loss of lung function (SpO2) (animals receiving the highest concentration, FIG. 6B)	peripheral blood oxygen saturation (SpO2) / gas exchange (room air, listed as TAT-SH-2)
TAT-SH3-2M: TAT-SH3-2 with G to V point mutations at amino acids 36-38; inactive TAT-SNX9 peptide unable to bind pSmad3 (TVNEGEIITITNPDVVVVWLEGRNIKGERGL; left off: small tags and cut ends)	ineffective	ineffective	but not TAT-SH3-2M, significantly reduced	ineffective	analogous decline in SpO2	~25	–	–	–
TAT-SH3-2: TAT-SNX9(SH3) fusion polypeptide having SNX9 amino acids 21-51 (31 mer) (TVNEGEIITITNPDVGGGWLEGRNIKGERGL; left off: small tags and cut ends)	reduced interstitial fibronectin to essentially basal levels	improved lung histology	significantly reduced	dose-dependent dimunization in total collagen production	stabilized and/or improved gas exchange; also recorded: dose-dependent improvement in gas exchange	–	attenuated	no additional loss of lung function	stabilizes lung gas exchange
